Assay results as given in PubChem BioAssay AID328 (DTP/NCI, 2004).
Several values for one entry are separate records, joined by “and”; a condition that tells them apart may be missing. Equal values may be shown once. Toxic doses and inconclusive results are not listed.

Test system: BDF1 mice, P388 leukemia ip, median survival T/C
Test: NCI In Vivo Anticancer Drug Screen. Data for tumor model P388 Leukemia (intraperitoneal) in B6D2F1 (BDF1) mice
Conditions: endpoint: median survival time, higher = longer survival
Procedure, shortened: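 Vehicle-dosed animals serve as the reference; survival of compound-dosed, tumour-implanted mice is divided by it.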

[1] = dose: 100.0 mg/kg/injection, schedule: Q01DX009 (ip), vehicle: saline with Tween-80
[2] = dose: 200.0 mg/kg/injection, schedule: Q01DX009 (ip), vehicle: saline with Tween-80
[3] = dose: 400.0 mg/kg/injection, schedule: Q01DX009 (ip), vehicle: saline with Tween-80
[4] = dose: 100.0 mg/kg/injection, schedule: Q04DX003 (ip), vehicle: Klucel (hydroxypropylcellulose) (HPC)
[5] = dose: 200.0 mg/kg/injection, schedule: Q04DX003 (ip), vehicle: Klucel (hydroxypropylcellulose) (HPC)
[6] = dose: 400.0 mg/kg/injection, schedule: Q04DX003 (ip), vehicle: Klucel (hydroxypropylcellulose) (HPC)
[7] = dose: 100.0 mg/kg/injection, schedule: Q04DX003 (ip), vehicle: saline with Tween-80
[8] = dose: 200.0 mg/kg/injection, schedule: Q04DX003 (ip), vehicle: saline with Tween-80
[9] = dose: 400.0 mg/kg/injection, schedule: Q04DX003 (ip), vehicle: saline with Tween-80
[10] = dose: 50.0 mg/kg/injection, schedule: Q01DX009 (ip), vehicle: saline with Tween-80
[11] = dose: 3.12 mg/kg/injection, schedule: Q01DX009 (ip), vehicle: water
[12] = dose: 6.25 mg/kg/injection, schedule: Q01DX009 (ip), vehicle: water
[13] = dose: 12.5 mg/kg/injection, schedule: Q01DX009 (ip), vehicle: water
[14] = dose: 50.0 mg/kg/injection, schedule: Q01DX009 (ip), vehicle: Klucel (hydroxypropylcellulose) (HPC)
[15] = dose: 100.0 mg/kg/injection, schedule: Q01DX009 (ip), vehicle: Klucel (hydroxypropylcellulose) (HPC)
[16] = dose: 200.0 mg/kg/injection, schedule: Q01DX009 (ip), vehicle: Klucel (hydroxypropylcellulose) (HPC)
[17] = dose: 400.0 mg/kg/injection, schedule: Q01DX009 (ip), vehicle: Klucel (hydroxypropylcellulose) (HPC)

CC(=O)C(C)(NCc1ccccc1)c1ccccc1 (configuration not stated)
T/C (dose: 45.0 mg/kg/injection, schedule: Q01DX001 (ip), vehicle: saline): 104 % of control | T/C (dose: 85.0 mg/kg/injection, schedule: Q01DX001 (ip), vehicle: saline): 108 % of control and 116 % of control | T/C (dose: 100.0 mg/kg/injection, schedule: Q01DX001 (ip), vehicle: saline): 109 % of control | T/C (dose: 135.0 mg/kg/injection, schedule: Q01DX001 (ip), vehicle: saline): 120 % of control | T/C (dose: 200.0 mg/kg/injection, schedule: Q01DX001 (ip), vehicle: saline): 104 % of control | T/C (dose: 300.0 mg/kg/injection, schedule: Q01DX001 (ip), vehicle: saline): 100 % of control | T/C (dose: 400.0 mg/kg/injection, schedule: Q01DX001 (ip), vehicle: saline): 104 % of control

CCC1CCCCN1C(=S)N/N=C(\C)c1ccccn1 (configuration not stated)
T/C (dose: 3.12 mg/kg/injection, schedule: Q04DX003 (ip), vehicle: saline with Tween-80): 102 % of control | T/C (dose: 12.5 mg/kg/injection, schedule: Q04DX003 (ip), vehicle: saline with Tween-80): 114 % of control

CC(=O)OCC1OC(n2cnc3c(=S)nc[nH]c32)C(OC(C)=O)C1OC(C)=O (configuration not stated)
T/C [1]: 118 % of control | T/C [2]: 109 % of control | T/C [3]: 90 % of control

CCOc1ccc(Br)cc1/C=N\N=C\c1cc(Br)ccc1OCC
T/C (dose: 6.0 mg/kg/injection, schedule: Q01DX001 (ip), vehicle: Klucel (hydroxypropylcellulose) (HPC)): 87 % of control | T/C (dose: 12.0 mg/kg/injection, schedule: Q01DX001 (ip), vehicle: Klucel (hydroxypropylcellulose) (HPC)): 95 % of control | T/C (dose: 25.0 mg/kg/injection, schedule: Q01DX001 (ip), vehicle: Klucel (hydroxypropylcellulose) (HPC)): 86 % of control

CC1(C)C/C(=C\c2ccc(Cl)cc2)C(=O)c2ccccc21
T/C [4]: 100 % of control | T/C [5]: 100 % of control | T/C [6]: 91 % of control

C=CCN(CC=C)CCNc1nc(C(Cl)(Cl)Cl)nc2ccc(Cl)cc12
T/C [7]: 100 % of control | T/C [8]: 112 % of control | T/C [9]: 116 % of control

COc1ccc(C(=O)C/C(=N\N(C(=O)c2ccc(OC)cc2)c2ccccc2)c2ccc(OC)cc2)cc1
T/C [10]: 104 % of control | T/C [1]: 100 % of control | T/C [2]: 100 % of control

COc1cc(OC)c(/C=C/c2ccncn2)c(OC)c1
T/C [10]: 101 % of control | T/C [1]: 108 % of control | T/C [2]: 117 % of control

C=CCC(CC)(C(=O)OCC)C(=O)OCC
T/C (dose: 100.0 mg/kg/injection, schedule: Q01DX009 (ip), vehicle: saline): 100 % of control | T/C (dose: 200.0 mg/kg/injection, schedule: Q01DX009 (ip), vehicle: saline): 104 % of control | T/C (dose: 400.0 mg/kg/injection, schedule: Q01DX009 (ip), vehicle: saline): 122 % of control

CC(=O)OCc1cc(=O)n(C)c2c3c4c(cc12)c(C)cc(=O)n4CO3
T/C (dose: 100.0 mg/kg/injection, schedule: Q01DX001 (ip), vehicle: Klucel (hydroxypropylcellulose) (HPC)): 120 % of control

NC(=O)/C=C/c1c[nH]c2nccnc12
T/C [11]: 113 % of control | T/C (dose: 3.12 mg/kg/injection, schedule: Q04DX003 (ip), vehicle: water): 106 % of control | T/C [12]: 108 % of control | T/C (dose: 6.25 mg/kg/injection, schedule: Q04DX003 (ip), vehicle: water): 105 % of control and 112 % of control | T/C [13]: 121 % of control | T/C (dose: 12.5 mg/kg/injection, schedule: Q04DX003 (ip), vehicle: water): 104 % of control and 106 % of control | T/C (dose: 25.0 mg/kg/injection, schedule: Q04DX003 (ip), vehicle: water): 114 % of control

CN1C(=O)CN=C(c2ccc[nH]2)c2cc(Cl)ccc21 (tested in a mixture with another compound)
T/C [14]: 104 % of control | T/C [15]: 109 % of control | T/C [4]: 100 % of control | T/C [16]: 100 % of control | T/C [5]: 104 % of control | T/C [6]: 90 % of control

OCCC1=CCC1
T/C [10]: 101 % of control | T/C [1]: 101 % of control | T/C [2]: 111 % of control

CCCN1CSC(=S)N(CCC)C1
T/C [14]: 100 % of control | T/C [15]: 170 % of control

CCC/C(=C\C(=O)O)CC
T/C [15]: 109 % of control | T/C [16]: 100 % of control | T/C [17]: 104 % of control

COc1cc2c(cc1OC)-c1ncnc(-c3ccccc3)c1C2
T/C [15]: 100 % of control | T/C [4]: 108 % of control | T/C [16]: 100 % of control | T/C [5]: 91 % of control | T/C [17]: 95 % of control | T/C [6]: 95 % of control

N=C(N)SCc1cccc([N+](=O)[O-])c1
T/C (dose: 12.5 mg/kg/injection, schedule: Q01DX009 (ip), vehicle: Klucel (hydroxypropylcellulose) (HPC)): 97 % of control | T/C (dose: 25.0 mg/kg/injection, schedule: Q01DX009 (ip), vehicle: Klucel (hydroxypropylcellulose) (HPC)): 103 % of control | T/C [14]: 110 % of control

COC(=O)CCC1([N+](=O)[O-])CCCCC1
T/C (dose: 25.0 mg/kg/injection, schedule: Q01DX009 (ip), vehicle: saline with Tween-80): 87 % of control | T/C (dose: 25.0 mg/kg/injection, schedule: Q04DX003 (ip), vehicle: saline with Tween-80): 92 % of control | T/C [10]: 95 % of control | T/C (dose: 50.0 mg/kg/injection, schedule: Q04DX003 (ip), vehicle: saline with Tween-80): 92 % of control | T/C [1]: 95 % of control | T/C [7]: 88 % of control

OCc1ccccc1
T/C [1]: 95 % of control | T/C [2]: 104 % of control | T/C [3]: 108 % of control

CCOC(Cn1ccc(=O)[nH]c1=O)OCC
T/C (dose: 100.0 mg/kg/injection, schedule: Q04DX003 (ip), vehicle: saline sonified): 100 % of control | T/C (dose: 200.0 mg/kg/injection, schedule: Q04DX003 (ip), vehicle: saline sonified): 104 % of control | T/C (dose: 400.0 mg/kg/injection, schedule: Q04DX003 (ip), vehicle: saline sonified): 109 % of control

C[C@]12CC[C@H]3[C@@H](CC[C@]4(O)C[C@@H](O)CC[C@]34C=O)[C@@]1(O)CC[C@@H]2c1ccc(=O)oc1
T/C (dose: 13.7 mg/kg/injection, schedule: Q01DX010 (ip), vehicle: carboxymethylcellulose (CMC)): 95 % of control | T/C (dose: 27.5 mg/kg/injection, schedule: Q01DX010 (ip), vehicle: carboxymethylcellulose (CMC)): 100 % of control

O=C1C=CC(=O)c2cc(Cl)c(Cl)cc21
T/C (dose: 3.13 mg/kg/injection, schedule: Q01DX009 (ip), vehicle: saline with Tween-80): 118 % of control | T/C (dose: 12.5 mg/kg/injection, schedule: Q01DX009 (ip), vehicle: saline with Tween-80): 86 % of control

CCCC[N+](CCCC)=c1cc(-c2ccc(Cl)cc2)ss1
T/C [11]: 100 % of control and 114 % of control | T/C [12]: 91 % of control and 120 % of control | T/C [13]: 98 % of control and 104 % of control | T/C (dose: 25.0 mg/kg/injection, schedule: Q01DX009 (ip), vehicle: water): 100 % of control and 106 % of control | T/C (dose: 50.0 mg/kg/injection, schedule: Q04DX003 (ip), vehicle: water): 102 % of control | T/C (dose: 100.0 mg/kg/injection, schedule: Q04DX003 (ip), vehicle: water): 93 % of control

CCCC(F)C(=O)OCC (configuration not stated)
T/C [1]: 90 % of control | T/C [7]: 100 % of control | T/C [2]: 104 % of control | T/C [8]: 109 % of control | T/C [3]: 118 % of control | T/C [9]: 100 % of control

CCN(CC)c1ccc(N=Cc2ccccc2S(=O)(=O)O)cc1
T/C (dose: 6.25 mg/kg/injection, schedule: Q01DX009 (ip), vehicle: saline): 100 % of control | T/C (dose: 6.25 mg/kg/injection, schedule: Q04DX003 (ip), vehicle: saline): 104 % of control | T/C (dose: 12.5 mg/kg/injection, schedule: Q01DX009 (ip), vehicle: saline): 100 % of control | T/C (dose: 12.5 mg/kg/injection, schedule: Q04DX003 (ip), vehicle: saline): 109 % of control | T/C (dose: 25.0 mg/kg/injection, schedule: Q01DX009 (ip), vehicle: saline): 100 % of control | T/C (dose: 25.0 mg/kg/injection, schedule: Q04DX003 (ip), vehicle: saline): 104 % of control

CC1OC(OC2CC(O)C3(CO)C4C(O)CC5(C)C(C6=CC(=O)OC6)CCC5(O)C4CCC3(O)C2)C(O)C(O)C1O (configuration not stated)
T/C (dose: 1.5 mg/kg/injection, schedule: Q01DX010 (ip), vehicle: saline): 90 % of control | T/C (dose: 3.0 mg/kg/injection, schedule: Q01DX010 (ip), vehicle: saline): 90 % of control
